For data set [1], the system named is primary human skin fibroblasts. Nature of the data set: Vitality of primary human fibroblasts (dye exclusion count). The note with it: 1-50 mM, serum free medium, 24 hours; FIG. 7. The data set is classed as cell-based. As for the experimental part:
An identical number (10^4 cells per well) of primary human skin fibroblasts were inoculated in 24-well plates (Greiner, no. 662160) and were cultured in DMEM (Gibco; no. 41966-092) in the presence of 10% calf serum (Biochrom, S0113/5), 2 mM L-glutamine (Gibco; no. 25030-024), penicillin/streptomycin (100 units penicillin/ml; 100 μg streptomycin/ml, Gibco; no. 15140/122), 5 mg % ascorbic acid (Serva, no. 14030.02) at 37° C., 5% CO2 and 95% humidity. The primary human fibroblasts were prepared according to the instructions of Birkenmeier et al. (1998). After reaching 50% confluency the medium was by fresh serum free medium. Thereafter the following supplements were added to the cells: preparation 1 (equivalent volume of serum free (SF) medium, blank); preparation 2 (1 mM DEL or 1 mM LEL or 1 mM EP); preparation 3 (5 mM DEL or 5 mM LEL or 5 mM EP), preparation 4 (10 mM DEL or 10 mM LEL or 10 mM EP), preparation 5 (20 mM DEL or 20 mM LEL or 20 mM EP), preparation 6 (50 mM DEL or 50 mM LEL or 50 mM EP). The culture was continued at 37° C., 5% CO2 and 95% humidity for 24 hours. Thereafter the supernatants were removed and 100 μl of a 50% […] solution was added to the wells. After washing the cells with medium the unstained and stained cells were counted under the light optical microscope comprising a coordinate plane. Cells stained blue were assessed as avital, unstained cells as vital. The percentage of unstained cells of the total number of cells corresponds to the vitality of the cells.

Another data set has as its target T1, yeast glyoxalase I (Saccharomyces cerevisiae, UniProt P50107).
T1 construct: purchased Sigma G-4252
T1 sequence (P50107 1-326): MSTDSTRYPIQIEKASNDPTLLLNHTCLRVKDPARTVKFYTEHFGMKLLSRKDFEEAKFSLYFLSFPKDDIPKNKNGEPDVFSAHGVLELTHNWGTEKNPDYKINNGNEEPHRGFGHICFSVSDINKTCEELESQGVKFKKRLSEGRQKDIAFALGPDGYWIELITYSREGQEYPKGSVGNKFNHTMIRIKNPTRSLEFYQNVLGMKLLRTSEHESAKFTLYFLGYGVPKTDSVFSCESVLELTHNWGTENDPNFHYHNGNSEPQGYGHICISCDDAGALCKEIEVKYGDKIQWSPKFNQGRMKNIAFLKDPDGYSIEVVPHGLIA
Briefly: Enzymatic activity of yeast glyoxalase I (formation of S-D-lactoyl-glutathione, 240 nm). The conditions noted are these: for Influence on the enzymatic activity of yeast glyoxalase I: increasing concentrations (0-30 mM in Example 5), FIG. 1-3. The data set is classed as biochemical. The procedure: Measuring glyoxalase I (E.C.4.4.1.5, lactoyl-glutathione lyase Sigma, G-4252) was performed according to the instructions of McLellan and Thornalley (1989). The principle is based on measuring the initial rate of formation of S-D-lactoyl-glutathione from methylglyoxal (Sigma, MO252, 40%) and reduced L-glutathione (Aldrich, G-4251, >99%). The formation of the product is observed using the extinction coefficient e=2.86 mM-1 cm-1 at 240 nm. The measurement was performed in 50 mM sodium phosphate buffer, pH 7.0. For that purpose 2 mM methylglyoxal and 2 mM reduced glutathione were incubated for 2 minutes at 30° C. for the formation of the hemithioacetal. Thereafter 20 μl of a 1 to 1000 dilution of the glyoxalase I (Sigma, G-4252) was added to 1 ml of the measuring reagent to start the reaction.
Glyoxalase activity (IU) corresponds to the amount of enzyme forming 1 μmol of S-D-lactoyl-glutathione/min.
Determination of glyoxalase I activity was performed according to the general protocol as described above. The influence of ethyl pyruvate on enzyme activity was investigated by addition of increasing concentrations of EP (Sigma; no. E4, 780-8; lot. S18972-513) to the measuring reagent.
Determination of glyoxalase I activity was performed according to the general protocol as described above. The influence of compounds of the general formula (I), (II), and (III) on the activity of the enzyme was investigated by addition of increasing concentrations of these compounds to the preparation. The IC50-values were calculated from inhibition curves of each compound.
Determination of glyoxalase I activity was performed according to the general protocol as described above. The influence of 2-oxopropanethioic acid S-ethyl ester on the activity of the enzyme was investigated by addition of increasing concentrations of SE to the preparation for the measurement.
Determination of glyoxalase I activity was performed according to the general protocol as described above. The influence of effectors on the enzymatic activity was investigated by addition of increasing concentrations (0-30 mM) of EP (Sigma; no. E4, 780-8; lot. S18972-513) (triangle), BP (prepared according to the instructions of patent JP 11080089; 98%) (circle) and BL (Fluka, 69819; lot. 443090/1 21503090) (squares) to the measuring reagent (FIG. 3).

The test system of data set [2] is NAD-dependent lactate dehydrogenases. Nature of the data set: Interconversion by NAD-dependent lactate dehydrogenases. Type of data set: in vitro ADME. The note with it: inventors' own measurements.
Data set [3] relates to biofilms (biofilm-forming microorganisms from pipe water). Nature of the data set: Destruction of biofilms on contaminated silicone surfaces (colony forming units). Type of data set: cell-based. The conditions noted are these: normalized to 1 cm2 inner tube surface. As for the experimental part: Biofilms were allowed to generate in a silicon tube system according to Gebel et al. (2005). In short, pipe water from a public water distributor was used as the source of biofilm-forming microorganisms. Water flow was at about 20 l per hour through silicon tubes from two commercial suppliers with inner diameters of 4 mm for 30 days at 25° C. After that the tubes were emptied, sealed at both ends and treated on their outer surface with 0.2% peroxoacetic acid for 1 hour. Tubes were then rinsed with sterile water and afterwards cut into pieces of 5 cm length each using a sterile scalpel. Pieces obtained this way were then dipped into solutions which contained the substance to be tested or respective controls. 25 ml of the test solutions were used in closed Falcon tubes (50 ml). […] Tubes were opened over their full length with scissors and the material deposited at the original inner surfaces of the tubes homogenized in 10 ml of saline (9 g NaCl/l water). Dilutions were made (decimal steps to 10^4) and 0.1 ml of these solutions plated onto test agar plates (1 l contained 0.5 g yeast extract, 0.5 g peptone, 0.5 g casein hydrolysate, 0.5 g starch. 0.3 g potassium hydrogen phosphate, 24 mg magnesium sulphate, 0.3 g sodium pyruvate, 15 g agar). Plates were incubated for seven days at 20° C. Colonies which formed were counted on each plate independent of their appearance and color. […] Two dilutions must be consistent in colony numbers, taken into consideration the respective dilution factors. Numbers were normalized to 1 cm2 of the inner tube surface. Each substance was analysed in duplicates. Biofilms were treated with water (control), ethyl pyruvate […] Numbers are given for each of the different silicon tubes used.

These results are taken from patent US20100204161A1, “Substances and Pharmaceutical Compositions for the Inhibition of Glyoxalases and Their Use Against Bacteria” (BIOMAC PRIVATINSTITUT FUR MEDIZINISHE UND ZAHMEDIZ …, priority 2005, published 2010).

Regarding `CCOC(=O)[C@@H](C)O` [(+)-Ethyl D-Lactate], the “Effect on the vitality of primary human fibroblasts” value in data set [1] is “not toxic over the concentration range investigated”.
Take `CCCCOC(=O)[C@H](C)O` [(−)-Butyl L-Lactate]: at yeast glyoxalase I, the “Influence on the enzymatic activity of yeast glyoxalase I” value (“Influence on the enzymatic activity” for short) is “does not influence the reaction of glyoxalase”.
Turning to `CCOC(=O)[C@H](C)O` [(−)-Ethyl L-Lactate], the “Effect on the vitality of primary human fibroblasts” value in data set [1] is reported as “not toxic over the concentration range investigated”.
Regarding `CCCCOC(=O)C(C)O` (stereo not drawn) [Butyl lactate], the “Transformation by NAD-dependent lactate dehydrogenases” value in data set [2] is given as “to a lesser degree than ethyl lactate, also be transformed”.
For `CCCCOC(=O)C(C)=O` [Butyl pyruvate], the “Effect on yeast glyoxalase I compared with EP” value at yeast glyoxalase I (0-30 mM, FIG. 3) is “the effect of BP is stronger than the effect of EP”. The “Influence on the enzymatic activity” value at yeast glyoxalase I is given as “inhibit the activity of glyoxalase I in a concentration dependent manner”.
With `CCOC(C)=O` [Ester control, ethyl acetate, reference compound], the “Colony forming units derivable from biofilms after treatment” value in data set [3] (25 mM, 30 min, first silicon tube) is given as 5.1 × 10^5 colony forming units; in data set [3] (25 mM, 30 min, second silicon tube), 6.5 × 10^5 colony forming units; in data set [3] (25 mM, 120 min, first silicon tube), 7.0 × 10^4 colony forming units; in data set [3] (25 mM, 120 min, second silicon tube), 1.1 × 10^5 colony forming units.
For the molecule `CC(=O)OO` [Peroxo acetic acid, peroxoacetic acid, reference compound], the “Colony forming units derivable from biofilms after treatment” value in data set [3] (0.1%, 30 min, first silicon tube) is listed as 8.2 × 10^3 colony forming units; in data set [3] (0.1%, 30 min, second silicon tube), 9.3 × 10^3 colony forming units; in data set [3] (0.1%, 120 min, first silicon tube) it was 3.1 × 10^3 colony forming units; in data set [3] (0.1%, 120 min, second silicon tube), 4.7 × 10^3 colony forming units.
On to `CCSC(=O)C(C)=O` [SE, 2-Oxopropanethioic acid S-ethyl ester], for which the “Influence on the enzymatic activity” value on yeast glyoxalase I is given as “inhibits the reaction of the glyoxalase I of yeast in a concentration dependent manner”.
